Values joined by “and” are separate entries in the source; they are usually repeats but may differ in a detail not shown here. Equal entries are not always repeated. Where a SMILES comes first, the peptide text is derived from it.
What follows are compounds tested on lipase (assay: Lipase/lipolysis assay (EnzChek Lipase Substrate, quenched BODIPY-fatty acid conjugate) on stored human milk; for Lipase (RFU): test concentration or dose not given here).

Q: For `O=C(O)C(O)Cc1ccc(O)cc1` (centres unmarked) [Hydroxyphenyllactic acid], which “Lipase (RFU)” value is on record?
A: 914.2115 RFU

Q: How did the “Lipase (RFU)” value turn out when `NC(=O)Cc1ccccc1` [Compound 2-Phenylacetamide, 2-Phenylacetamide] was run?
A: 955.8815 RFU

Q: Which “Lipase (RFU)” value does the source give for `CC1(C)CCC[C@]2(C)[C@H]3CCO[C@]3(C)CC[C@@H]12` [Ambroxide] here?
A: 1042.515 RFU

Q: Which “Lipase (RFU)” value does the source give for `O=c1[nH]c2ccccc2o1` [Compound 2-Benzoxazolinone, 2-Benzoxazolinone] here?
A: 985.9488 RFU

Q: How did the “Lipase (RFU)” value turn out when `N[C@@H](CS(=O)O)C(=O)O` [L-Cysteine Sulfinic Acid] was run?
A: 845.2477 RFU

Q: Which “Lipase (RFU)” value does the source give for Cytidine-2′,3′-cyclic monophosphate here?
A: 1332.358 RFU

Q: With `NCC(=O)N1CCC[C@H]1C(=O)O` [Glycyl-L-Proline] (H-Gly-Pro-OH) as the compound, how does the “Hit in lipase inhibition screen (in words)” value read?
A: significantly inhibited lipase activity

Q: What about the “Lipase (RFU)” value of the same compound?
A: 318.8964 RFU

Q: For `CC(C)=CCC[C@](C)(O[C@@H]1O[C@H](CO)[C@@H](O)[C@H](O)[C@H]1O)[C@H]1CC[C@]2(C)[C@@H]1[C@H](O)C[C@@H]1[C@@]3(C)CC[C@H](O)C(C)(C)[C@@H]3[C@@H](O[C@@H]3O[C@H](CO)[C@@H](O)[C@H](O)[C@H]3O[C@@H]3OC[C@@H](O)[C@H](O)[C@H]3O)C[C@]12C` [Notoginsenoside R1], which “Lipase (RFU)” value is on record?
A: 899.6021 RFU

Q: With `CC(=O)NCCCCNCCCN.Cl.Cl` [N8-Acetylspermidine dihydrochloride] as the compound, how does the “Lipase (RFU)” value read?
A: 781.9265 RFU

Q: For `O=C([O-])[C@H](O)[C@@H](O)[C@H](O)[C@H](O)CO.[K+]` [Potassium Gluconate], which “Lipase (RFU)” value is on record?
A: 966.4096 RFU and 888.9701 RFU

Q: For `C=C(C)[C@H]1Cc2c(ccc3c2O[C@@H]2COc4cc(OC)c(OC)cc4[C@@H]2C3=O)O1` [Rotenone], which “Lipase (RFU)” value is on record?
A: 542.204 RFU

Q: With `CCCCC/C=C/C/C=C/CCCCCCCC(=O)O` [Linolelaidic acid] as the compound, how does the “Lipase (RFU)” value read?
A: 831.2921 RFU

Q: `COc1cc(O)c2c(=O)cc(-c3ccc(O)c(O)c3)oc2c1` [Hydroxygenkwanin] was tested. Which “Lipase (RFU)” value did it give?
A: 874.9866 RFU

Q: With `Cc1ccc(C(C)C)cc1O` [Carvacrol] as the compound, how does the “Lipase (RFU)” value read?
A: 695.2525 RFU and 1199.593 RFU

Q: How did the “Lipase (RFU)” value turn out when `CC1(C)[C@@H](O[C@H]2O[C@H](C(=O)[O-])[C@@H](O)[C@H](O)[C@H]2O[C@@H]2O[C@H](C(=O)[O-])[C@@H](O)[C@H](O)[C@H]2O)CC[C@]2(C)[C@H]3C(=O)C=C4[C@@H]5C[C@@](C)(C(=O)O)CC[C@]5(C)CC[C@@]4(C)[C@]3(C)CC[C@@H]12.[K+].[K+]` [Dipotassium glycyrrhizinate] was run?
A: 813.8172 RFU and 1090.475 RFU

Q: Which “Lipase (RFU)” value does the source give for `NC(=O)NCCC[C@H](N)C(=O)O` [L-Citrulline] here?
A: 1167.04 RFU and 809.9531 RFU

Q: For `Cl.N=C(N)NCCC[C@H](N)C(=O)O` [L-Arginine (hydrochloride)], which “Lipase (RFU)” value is on record?
A: 1273.102 RFU

Q: `Nc1ncnc2c1ncn2[C@@H]1O[C@H](COP(=O)(O)OP(=O)(O)OP(=O)([O-])[O-])[C@@H](O)[C@H]1O.O.O.O.[Na+].[Na+]` [ATP (disodium trihydrate)] was tested. Which “Lipase (RFU)” value did it give?
A: 947.4309 RFU

Q: How did the “Lipase (RFU)” value turn out when `NC(=O)NCCCC[C@H](N)C(=O)O` [L-Homocitrulline] was run?
A: 822.9997 RFU

Q: `NCc1[nH]cc(CCC(=O)O)c1CC(=O)O` [Porphobilinogen] was tested. Which “Lipase (RFU)” value did it give?
A: 1154.849 RFU

Q: `Cn1cncc1C[C@H](NC(=O)CCN)C(=O)O` [Anserine] was tested. Which “Lipase (RFU)” value did it give?
A: 1023.923 RFU

Q: `Cc1cc(O)cc2c1O[C@](C)(CCC[C@H](C)CCC[C@H](C)CCCC(C)C)CC2` [Delta-Tocopherol] was tested. Which “Lipase (RFU)” value did it give?
A: 1328.881 RFU

Q: Which “Lipase (RFU)” value does the source give for `O=C1O[C@H]([C@H](O)CO)C(O)=C1O` [Erythorbic acid] here?
A: 1131.679 RFU

Q: With `CC(C)CCC[C@@H](C)[C@H]1CC[C@H]2C3=CC[C@H]4C[C@@H](O)CC[C@]4(C)[C@H]3CC[C@]12C` [Lathosterol] as the compound, how does the “Lipase (RFU)” value read?
A: 1017.106 RFU

Q: For `CSCC[C@H](NC=O)C(=O)O` [For-Met-OH], which “Lipase (RFU)” value is on record?
A: 819.8295 RFU

Q: How did the “Lipase (RFU)” value turn out when `O=C(/C=C/c1ccc(O)cc1)CC(=O)/C=C/c1ccc(O)cc1` [Bisdemethoxycucurmin] was run?
A: 967.3982 RFU

Q: With `COc1cc(O)c2c(=O)c(-c3ccc(O)cc3)coc2c1` [Prunetin] as the compound, how does the “Lipase (RFU)” value read?
A: 865.5495 RFU

Q: For `CC1(C)CC[C@]2(C(=O)O[C@@H]3O[C@H](CO)[C@@H](O)[C@H](O)[C@H]3O)CC[C@]3(C)C(=CC[C@@H]4[C@@]5(C)CC[C@H](O[C@@H]6O[C@H](C(=O)O)[C@@H](O)[C@H](O)[C@H]6O[C@@H]6O[C@H](CO)[C@@H](O)[C@H](O)[C@H]6O)C(C)(C)[C@@H]5CC[C@]43C)[C@@H]2C1` [Ginsenoside Ro], which “Lipase (RFU)” value is on record?
A: 1082.912 RFU

Q: With `O=S(=O)([O-])c1ccc(N=Nc2c(O)ccc3cc(S(=O)(=O)[O-])ccc23)cc1.[Na+].[Na+]` [Sunset Yellow FCF] as the compound, how does the “Lipase (RFU)” value read?
A: 868.5434 RFU

Q: With `COc1cc(-c2cc(=O)c3c(O)cc(O)cc3o2)cc(OC)c1O` [Tricin] as the compound, how does the “Lipase (RFU)” value read?
A: 691.2218 RFU

Q: With `C=C1CCC2CC1C2(C)C` (stereo not drawn) [β-Pinene] as the compound, how does the “Lipase (RFU)” value read?
A: 851.1223 RFU

Q: For Liquiritin apioside, which “Lipase (RFU)” value is on record?
A: 875.5815 RFU

Q: Which “Lipase (RFU)” value does the source give for `O=C1C[C@@H](C(=O)O)NC(=O)N1` [L-Dihydroorotic acid] here?
A: 1002.656 RFU

Q: `COc1cc2c(cc1O)CC[C@@H]1[C@@H]2CC[C@]2(C)[C@@H](O)CC[C@@H]12` [Compound 2-Methoxyestradiol] was tested. Which “Lipase (RFU)” value did it give?
A: 884.0231 RFU

Q: For Inulin, which “Effect on lipase / lipolysis (in words)” value is on record?
A: did not inhibit or slow human milk lipolysis

Q: What about the “Lipase (RFU)” value of the same compound?
A: 793.2721 RFU and 805.6516 RFU and 1006.043 RFU

Q: And the “Synergistic effect in combination testing (in words)” value?
A: did not have synergistic effects

Q: With (−)-Fenchone as the compound, how does the “Lipase (RFU)” value read?
A: 812.4614 RFU

Q: `C[N+](C)(C)CCO.O=C([O-])C(O)C(O)C(=O)O` (centres unmarked) [Choline (bitartrate)] was tested. Which “Lipase (RFU)” value did it give?
A: 1263.191 RFU and 1046.984 RFU

Q: Which “Lipase (RFU)” value does the source give for `O=C([O-])C(O)Cc1ccc(O)c(O)c1.[Na+]` (centres unmarked) [Danshensu (sodium salt)] here?
A: 948.7665 RFU

Q: For Disodium succinate, which “Lipase (RFU)” value is on record?
A: 1168.659 RFU and 874.998 RFU

Q: How did the “Lipase (RFU)” value turn out when `COC(=O)[C@]1(C)CC[C@]2(C(=O)O[C@@H]3O[C@H](CO)[C@@H](O)[C@H](O)[C@H]3O)CC[C@]3(C)C(=CC[C@@H]4[C@@]5(C)C[C@H](O)[C@H](O[C@@H]6OC[C@@H](O[C@@H]7O[C@H](CO)[C@@H](O)[C@H](O)[C@H]7O)[C@H](O)[C@H]6O)[C@@](C)(CO)C5CC[C@]43C)[C@H]2C1` (some centres unmarked) [Esculentoside H] was run?
A: 1175.483 RFU

Q: For `c1ccc2c(-c3nccs3)c[nH]c2c1` [Camalexin], which “Lipase (RFU)” value is on record?
A: 1018.047 RFU

Q: Which “Lipase (RFU)” value does the source give for `COc1ccc(-c2cc(=O)c3c(OC)c(OC)c(OC)c(OC)c3o2)cc1` [Tangeritin] here?
A: 1254.653 RFU

Q: Which “Lipase (RFU)” value does the source give for Schaftoside here?
A: 900.214 RFU

Q: Which “Lipase (RFU)” value does the source give for `CC(C)(O)/C=C/C(=O)[C@](C)(O)[C@H]1[C@H](O)C[C@@]2(C)[C@@H]3CC=C4[C@@H](C[C@H](O)C(=O)C4(C)C)[C@]3(C)C(=O)C[C@]12C` [Cucurbitacin D] here?
A: 937.0398 RFU

Q: `OC[C@H]1O[C@@](CO)(O[C@H]2O[C@H](CO[C@@H]3O[C@H](CO)[C@@H](O)[C@H](O)[C@H]3O)[C@@H](O)[C@H](O)[C@H]2O)[C@@H](O)[C@@H]1O` [Gentianose] was tested. Which “Lipase (RFU)” value did it give?
A: 1100.387 RFU

Q: With `CC(C)[C@H](C)CC[C@@H](C)[C@H]1CC[C@H]2[C@@H]3CC=C4C[C@@H](O)CC[C@]4(C)[C@H]3CC[C@]12C` [Campesterol] as the compound, how does the “Lipase (RFU)” value read?
A: 912.1206 RFU

Q: `C[C@H](CCC(=O)NCC(=O)O)[C@H]1CC[C@H]2[C@@H]3CC[C@@H]4C[C@H](O)CC[C@]4(C)[C@H]3CC[C@]12C` [Glycolithocholic acid] was tested. Which “Lipase (RFU)” value did it give?
A: 1103.978 RFU
